According to US10206896B2, “Method of treating delayed healing of a wound associated with diabetes” (KUWAIT UNIVERSITY, priority 2014, dated 2019):

Tests used:
[1] = system: diabetic fibroblasts (DFs); test: BrdU incorporation into DNA (cell proliferation) in diabetic fibroblasts; assay type: cell-based, GotoKakizaki (GK) rat; settings: treated DFs compared with DFs
Method: (§1) Cell culture and HP treatment.
Assessment of key fibroblast functions essential for wound healing. To assess cell proliferation, fibroblasts were seeded into a 96-well plate at a density of 1×10^4 per well and were allowed to adhere overnight in DMEM medium supplemented with 10% FCS. After arrest by incubation in serum-free medium for 24 hours, the cells were exposed to growth factors, and the incorporation of bromodeoxyuridine (BrdU) into DNA was determined using the manufacturer's protocol (Roche Diagnostics). Similarly, for the in vitro wound (migration) experiments, cultured fibroblasts were grown in six-well plates until they reached confluence. The medium was removed, the cells were washed with PBS 3× before culturing was continued in serum-free DMEM containing 0.5% BSA for an additional 24 hours. Thereafter, the monolayer was artificially wounded by using a pipette tip to scratch across the plate; the cells were washed with PBS to remove the detached cells and then cultured in serum-free medium in the presence of mitomyocin C (10 μg/ml) to prevent cell proliferation. The rate of wound healing was quantified as described in the literature

[2] = system: circular wound of a diabetic rat; test: Full-thickness excisional circular wound, rate of wound closure; assay type: in vivo, GotoKakizaki (GK) rat; settings: composition of 30 μM 18α-GA and pluronic acid applied to the wound
Method: Wound model, drug treatment and macroscopic evaluation. All of the animal procedures were performed in accordance with the NIH Guidance for the Care and Use of Laboratory Animals. Female GotoKakizaki rats (GK) were used in the current study. Detailed information regarding this animal model for non-obese type 2 diabetes has been previously described. Weight and age-matched female Wistar rats (Kuwait University breeding colony) served as the corresponding controls. All of the animals were maintained under standard conditions with a 12 hour on/off light cycle, commercial diet, and water ad libitum. […]
The targeted depletion of caveolin-1 was achieved using the antisense vivo-morpholino oligomers (MOs) that were synthesized and designed by Gene Tools, LLC (Eugene, Oreg.). […] The specificity of the cav-1 morphant phenotype was determined using rat caveolin-1 cRNA that lacked the antisense MO binding site. […] The wound area was analyzed using Adobe Photoshop (version 7.0; Adobe Systems), and the percentage of wound closure was derived by the following formula: (1−[current wound size/initial wound size])×100. […]
Full-thickness excisional wounds were induced in the control and GK (a non-obese genetic model of type 2 diabetes), and key parameters related to cellular senescence, caveolin-1 signaling and oxidative stress were measured 10 days post-injury. […]

[3] = system: chronic oxidative stress fibroblasts (OS-CFs); test: Premature senescence in chronic oxidative stress fibroblasts; assay type: cell-based, Wistar rat
Method: as §1
Oxidatively-stressed CFs (OS-CFs). A heightened state of oxidative stress and premature senescence in CFs were induced using hydrogen peroxide (HP) as a stressor. The HP treatment was conducted by seeding approximately 1×10^6 cells in a T75 tissue culture flask. Twenty-four hours later, the cells were exposed to a sublethal dose of HP (150 μM) for 2 hours, washed 2× with PBS and after 4 days of culturing in HP free medium; they were split in a 1:2 ratio, and then the aforementioned protocol was repeated again for cells receiving the second and third HP treatment. A third passage HP-treated CFs denoted in the current study as (OS-CFs) together with the corresponding CFs and DFs were used in most of the assays outlined below.

[4] = system: diabetic fibroblasts (DFs)
Method: Cell culture and HP treatment. Primary dermal fibroblasts cell lines were established from the dorsal skin of female GotoKakizaki (GK; age 12-15 months) rat, a model for non-obese type 2 diabetes (DFs) and their Wistar control counterparts (CFs). Briefly, the dermis was cut into small pieces and incubated in Dulbecco's modified Eagle medium (DMEM; Invitrogen) containing collagenase (250 U/ml; Sigma) for 30 minutes at 37° C. in 5% CO2 with constant agitation. The sections were triturated vigorously to release fibroblasts, and these cells were collected by centrifugation. […]
Senescence-associated β-galactosidase staining and quantification assays. The senescence-associated β-galactosidase (SA-β-gal) activity was determined using a senescence β-gal staining kit (Cell Signaling Technology). […] For a prices quantification of β-gal activity, the rate of conversion of 4-methylumbelliferyl-3-D-galactopyranoside to the fluorescence hydrolyzed product 4-methylumbellifrone at pH 6 was assessed using previously published procedure (Gary and kindell 2005).
CFs were transfected with caveolin-1-pCMV(pCMV-Cav-1) or its vector control (pCMV-GRP), whereas DFs were rendered caveolin-1 deficient (Cav-1 siRNA) using siRNA-based technique. […] Most of the assays were performed in triplicate, and the data was expressed as the means±SEM of at least three independent experiments […]

[5] = system: control fibroblasts (CFs); test: BrdU incorporation into DNA (cell proliferation) in control fibroblasts; assay type: cell-based, Wistar rat; settings: 24-hr serum starved CFs, vs starved cells; dose providing the maximum response (IGF 50 ng, PDGF 1 nM, EGF 100 ng)
Method: Cell culture and HP treatment. […] Assessment of key fibroblast functions essential for wound healing. To assess cell proliferation, fibroblasts were seeded into a 96-well plate at a density of 1×10^4 per well and were allowed to adhere overnight in DMEM medium supplemented with 10% FCS. After arrest by incubation in serum-free medium for 24 hours, the cells were exposed to growth factors, and the incorporation of bromodeoxyuridine (BrdU) into DNA was determined using the manufacturer's protocol (Roche Diagnostics). Similarly, for the in vitro wound (migration) experiments, cultured fibroblasts were grown in six-well plates until they reached confluence. The medium was removed, the cells were washed with PBS 3× before culturing was continued in serum-free DMEM containing 0.5% BSA for an additional 24 hours. […] The rate of wound healing was quantified as described in the literature […] Caveolin-1 protein expression and PDGF-induced phosphorylation of Akt (20 min) and ERK (10 min) in 24-hr serum starved fibroblasts were determined using a Western-blotting-based technique. A proliferation index encompassing BrdU incorporation into DNA and cell cycle progression was evaluated in response to various growth factors (e.g., IGF, 50 ng; PDGF, 1 nM; EGF, 100 ng) in 24-hr serum starved fibroblast. […]

[6] = system: control fibroblasts (CFs); test: In vitro scratch wound (cell migration) in control fibroblasts; assay type: cell-based, Wistar rat; settings: 24 hrs post-injury
Method: Cell culture and HP treatment. […] Assessment of key fibroblast functions essential for wound healing. To assess cell proliferation, fibroblasts were seeded into a 96-well plate at a density of 1×10^4 per well and were allowed to adhere overnight in DMEM medium supplemented with 10% FCS. After arrest by incubation in serum-free medium for 24 hours, the cells were exposed to growth factors, and the incorporation of bromodeoxyuridine (BrdU) into DNA was determined using the manufacturer's protocol (Roche Diagnostics). Similarly, for the in vitro wound (migration) experiments, cultured fibroblasts were grown in six-well plates until they reached confluence. The medium was removed, the cells were washed with PBS 3× before culturing was continued in serum-free DMEM containing 0.5% BSA for an additional 24 hours. Thereafter, the monolayer was artificially wounded by using a pipette tip to scratch across the plate; the cells were washed with PBS to remove the detached cells and then cultured in serum-free medium in the presence of mitomyocin C (10 μg/ml) to prevent cell proliferation. The rate of wound healing was quantified as described in the literature […] Caveolin-1 protein expression and PDGF-induced phosphorylation of Akt (20 min) and ERK (10 min) in 24-hr serum starved fibroblasts were determined using a Western-blotting-based technique. A proliferation index encompassing BrdU incorporation into DNA and cell cycle progression was evaluated in response to various growth factors (e.g., IGF, 50 ng; PDGF, 1 nM; EGF, 100 ng) in 24-hr serum starved fibroblast. An in vitro wound-healing model conducted by scratching starved confluent cultured fibroblasts with a pipette tip was used to monitor the impact of PDGF on cell migration. […] In serum-induced proliferating cells in CFs, the optical density at 450 nm (OD450) was more than 10-fold higher than that observed for starved cells.

| Compound | rate of proliferation (BrdU incorporation into DNA) [1] | impaired wound healing (rate of wound closure) [2] | premature senescence [3] | premature senescence ([4]; DFs) | level/activity of SA-β-gal ([4]; treated DFs compared with DFs) | increase of proliferation rate (BrdU incorporation) [5] | number of cells that migrated into the cell-free wound zone [6] | relative potency on cell migration among growth factors [6] |
| --- | --- | --- | --- | --- | --- | --- | --- | --- |
| CC1(C)[C@@H](O)CC[C@]2(C)[C@H]3C(=O)C=C4[C@H]5C[C@@](C)(C(=O)O)CC[C@]5(C)CC[C@@]4(C)[C@]3(C)CC[C@@H]12 [18α-GA, 18α-Glycyrrhetinic acid] | increased rate of proliferation | ameliorate impaired wound healing | can be reversed | can be reversed | significantly lower level |  |  |  |
| IGF: mitotic growth factor |  |  |  |  |  | ~6.7 fold | markedly increased |  |
| PDGF |  |  |  |  |  | approximately 10 fold | markedly increased | most potent among them |
